Assay results taken from US10001469B2, “Use of GPR83 to identify pruritus-related substances” (University of Miyazaki, priority 2010, dated 2018).
“Also recorded” adds a separate entry of the source. Non-standard residues stand in square brackets, D forms with d. No end group written: not given here.

Columns and labels:
pain-related behavior = settings: cited from earlier work; for suppression of pain-related behavior resulting from SP: Non-patent Documents 1, 2 and 3; for induction of pain-related behavior (e.g., scratching behavior): administered to a rat or a mouse, Non-patent Document 1
thermal hyperalgesia = settings: intrathecal administration; Non-patent Documents 7, 9, 10, 11; cited from earlier work
[1] = tested on: intrathecally catheterized rats; settings: depending on the concentrations of peptides administered, Non-patent Document 7; cited from earlier work
[2] = tested on: SP-induced scratching behavior; test: SP-induced scratching behavior after intrathecal pre-administration of peptide or siRNA; format: in vivo, rat
Method: In addition, the number of scratching events induced by SP administration at 5 minutes after saline administration was designated as a control, and was specifically designated as 100%.
In addition, the number of scratching events induced by SP administration at 5 minutes after saline administration was designated as a control and was specifically designated as 100%.
10^−3 M (10 nmol/10 μl) N-terminal regions (nSP and nHK-1) and the following peptides subjected to substitution were administered to intrathecally catheterized rats via catheters.
5 minutes after administration, the number of scratching events induced by administration of 10^−3 M (10 nmol/10 μl) SP was evaluated. In addition, the number of scratching events induced by administration of 10^−3 M SP at 5 minutes after saline administration was designated as a control and was specifically designated as 100%.
10^−3 M (10 nmol/10 μl) DTrp^2-nSP and DTrp^2-nHK-1 were administered to intrathecally catheterized rats via catheters, and then the number of scratching events induced by administration of 10^−3 M (10 nmol/10 μl) SP was evaluated. […] In addition, the number of scratching events induced by SP administration at 5 minutes after saline administration was designated as a control and was specifically designated as 100%.
siRNA was prepared using an HVJ Envelop Vector Kit (ISHIHARA SANGYO KAISHA, LTD) according to the protocols of the kit. 10 μl of an siRNA solution was administered to intrathecally catheterized rats via catheters. With administration of only HVJ-E and administration of mismatch siRNA as controls, time-course changes in scratching events resulting from SP or HK-1 were evaluated.
Next, NK1R siRNA was intrathecally administered and then SP was intrathecally administered on days 4, 7, 10, and 14. […] The number of SP-induced scratching events was gradually recovered after siRNA administration.

[3] = tested on: formalin-induced inflammatory pain; test: Formalin-induced pain behavior (flinching) after intraplantar formalin; format: in vivo, rat; settings: 10^−2 M (100 nmol/10 μl) peptide intrathecal 5 minutes before 2% formalin; for pain behavior (flinching events) during phase I: 0-10 minutes; for pain behavior (flinching events) during phase II: 10-60 minutes
Method: 10^−2 M (100 nmol/10 μl) nSP and nHK-1, or saline (10 μl) was administered to intrathecally catheterized rats via catheters, and then 5 minutes later, 50 μl of 2% formalin was administered subeutaneously to the hind paws of rats. The number of flinching events (pain behavior) was determined for a 60-minute period after formalin administration, so that the degree of pain was evaluated. During the 10-minute period after formalin administration (referred to as phase I), pain behavior was determined once every 2 minutes (1 minute per determination). During the period from 10 minutes to 60 minutes after formalin administration (referred to as phase 11), pain behavior was determined once every 5 minutes (1 minute per determination), so that the degree of pain was evaluated. During phase I, behavior (phasic pain) resulting from chemical stimulation accompanying formalin administration was observed. During phase II, […] following the phasic pain was observed.
The horizontal axis indicates time (minutes) after formalin administration and the vertical axis indicates the determined number of pain behavior events per minute.
4.5 mM (45 pmol/10 μl) GPR83 siRNA, 4.5 mM (45 pmol/10 μl) NK1R siRNA as target groups, 4.5 mM (45 pmol/10 μl) mismatch siRNA (MM siRNA: negative control), and 10 μl of HVJ-E (reagent for introduction of siRNA) were administered to intrathecally catheterized rats via catheters. On day 4 after administration, 50 μl of 2% formalin was administered subcutaneously to the hind paws of rats. The number of flinching events (pain behavior) was determined for a 60-minute period after formalin administration, so that the degree of pain was evaluated. During the 10-minute period after formalin administration (referred to as phase I), pain behavior was determined once every 2 minutes (1 minute per determination). During the period from 10 minutes to 60 minutes after formalin administration (referred to as phase II), pain behavior was determined once every 5 minutes (1 minute per determination), so that the degree of pain was evaluated. During phase I, behavior (phasic pain) resulting from chemical stimulation accompanying formalin administration was observed. During phase II, tonic pain following the phasic pain was observed.

[4] = tested on: intrathecally catheterized rats; test: Scratching behavior after intrathecal administration of the peptide alone; format: in vivo, rat; settings: 10^−3 M (10 nmol/10 μl) intrathecal
Method: 10^−3 M (10 nmol/10 μl) HK-1 and SP, the N-terminal regions (nHK-1 and nSP), and the C-terminal regions (cHK-1 and cSP) were administered to intrathecally catheterized rats via catheters. Ethological changes beginning immediately after administration were evaluated using the number of scratching events during a 5-minute period after each peptide administration as an indicator. Here, the expression “10^−3 M (10 nmol/10 μl) . . . administered” refers to administration of 10 μl (full dose) of a solution containing 10 nmol of a peptide (e.g., nHK-1) (that is, a 10^−3 M solution). The same applies to the following similar expressions. […] In these graphs, the number of scratching events induced by administration of 10^−3 M (10 nmol/10 μl) SP or HK-1 alone is designated as a control, and is specifically designated as 100%.

[5] = tested on: SP-induced scratching behavior; test: SP-induced scratching behavior after intrathecal pre-administration of peptide or siRNA; format: in vivo, rat; settings: 5 minutes before SP
NK1R = NK1R (Homo sapiens, UniProt P25103); settings: Non-patent Documents 4, 5, and 6; cited from earlier work
Sequence of NK1R (P25103 whole entry, species assumed): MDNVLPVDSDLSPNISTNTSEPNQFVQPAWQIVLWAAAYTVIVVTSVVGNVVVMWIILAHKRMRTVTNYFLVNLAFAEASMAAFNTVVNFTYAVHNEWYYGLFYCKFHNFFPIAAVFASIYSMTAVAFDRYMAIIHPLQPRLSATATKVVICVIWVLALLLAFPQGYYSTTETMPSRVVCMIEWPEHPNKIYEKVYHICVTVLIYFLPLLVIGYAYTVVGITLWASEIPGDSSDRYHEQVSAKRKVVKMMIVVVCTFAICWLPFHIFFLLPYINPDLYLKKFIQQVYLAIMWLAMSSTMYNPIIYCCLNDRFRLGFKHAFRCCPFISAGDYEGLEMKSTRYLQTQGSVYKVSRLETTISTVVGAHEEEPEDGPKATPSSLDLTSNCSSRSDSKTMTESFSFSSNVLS

[6] = tested on: histamine-induced itching; test: Histamine-induced itching behavior; format: in vivo, rat; settings: for itching behavior resulting from histamine administration (scratching events, 20 minutes): 10^−2 M (100 nmol/10 μl) peptide intrathecal immediately before s.c. histamine, vs saline
Method: (§1) Immediately after intrathecal administration of 10^−2 M (100 nmol/10 μl) DTrp^2-nSP, DTrp^2-nHK-1, or saline (10 μl) to intrathecally catheterized rats via catheters, an itching inducer (10^−3 M histamine (0.25 mg/50 μl) or 1.13×10^−4 M 5-HT (0.25 mg/50 μl)) was subcutaneously administered to the nape of the neck, and then itching behavior was determined for 20 minutes, thereby evaluating the degree of itching.
(§2) FIG. 8 and FIG. 9 show itching behavior resulting from administration of histamine and 5-HT. The vertical axis indicates the determined number of scratching events for a 20-minute period after histamine and 5-HT administration. The horizontal axis indicates DTrp^2-nSP, DTrp^2-nHK-1, and saline administered.
(§3) 4.5 mM (45 pmol/10 μl) GPR83 siRNA, 4.5 mM (45 pmol/10 μl) NK1R siRNA as target groups, and 10 μl of HVJ-E (reagent for introduction of siRNA) were administered to intrathecally catheterized rats via catheters. On day 4 after administration, itching inducers (10^−3 M histamine (0.25 mg/50 μl) and 1.13×10^−4 M 5-HT (0.25 mg/50 μl)) were each subcutaneously administered to the nape of the neck, itching behavior was determined for a 20-minute period after administration, and thus the degree of itching was evaluated.
(§4) FIG. 15 and FIG. 16 show the results of observing itching behavior resulting from histamine administration and 5-HT administration. The vertical axis indicates the number of scratching events during a 20-minute period after administration of histamine and 5-HT, and the horizontal axis indicates HVJ-E (reagent for introduction of siRNA), GPR83 siRNA, and NK1R siRNA administered.

5-HT-induced itching = test: Serotonin (5-HT)-induced itching behavior; format: in vivo, rat; settings: for itching behavior resulting from 5-HT administration (scratching events, 20 minutes): 10^−2 M (100 nmol/10 μl) peptide intrathecal immediately before s.c. 5-HT, vs saline
Method: as §1, §2, §3, §4

[7] = 10^−3 M (10 nmol/10 μl) peptide intrathecal, administration interval 5 minutes before 10^−3 M SP
[8] = 10^−3 M peptide intrathecal, administration interval 10 minutes
[9] = 10^−3 M peptide intrathecal, administration interval 15 minutes
[10] = assumed in view of Examples 1 to 5, not tested
[11] = 10^−3 M peptide intrathecal, administration interval 20 minutes
[12] = 10^−3 M peptide intrathecal, administration interval 30 minutes

For “Arg-Pro-Lys-Pro-Gln-Gln-Phe-NH2 (RPKPQQF-NH2) [SP(1-7)]”, the “suppression of pain-related behavior resulting from SP” value (pain-related behavior) is given as “can be suppressed; also recorded: suppress pain-related behavior resulting from SP”.

In the case of “Arg-Pro-Lys-Pro-Gln-Gln-Phe-Phe-Gly-Leu-Met-NH2 (RPKPQQFFGLM-NH2; listed as Homo sapiens) [SP]”, the “induction of thermal hyperalgesia” value (thermal hyperalgesia) is given as “induces thermal hyperalgesia”, the “induction of scratching behavior by intrathecal administration” value [1] is given as “induces scratching behavior” and the “induction of pain-related behavior (e.g., scratching behavior)” value (pain-related behavior) is given as “induces pain-related behavior”.

For “Arg-Pro-Lys-Pro-Gln-Gln-Phe-Phe-NH2 (RPKPQQFF-NH2) [SP(1-8)]”, the “suppression of pain-related behavior resulting from SP” value (pain-related behavior) is listed as “suppress pain-related behavior resulting from SP”.

In the case of “Arg-Pro-Lys-Pro-Gln-NH2 (RPKPQ-NH2) [nSP]”, the “suppression of the number of SP-induced scratching events” value [2, 7] is reported as “significantly suppress the number of scratching events; also recorded: an effect of suppressing the number of scratching events was exhibited significantly; also recorded: significant effects of suppressing SP-induced scratching behavior”, the “suppression of the number of SP-induced scratching events” value [2, 8] is reported as “suppression effect was exhibited to a significant degree” and the “suppression of the number of SP-induced scratching events” value [2, 9] is reported as “suppression effect disappeared”. The “pain behavior (flinching events) during phase I” value [3] was “pain behavior decreased significantly”, the “pain behavior (flinching events) during phase II” value [3] was “pain behavior decreased significantly” and the “scratching behavior on administration of the peptide alone (number of scratching events during a 5-minute period)” value (from here on “scratching behavior on administration”) [4] was “no scratching behavior”. For the same substance, the “suppression of scratching behavior resulting from SP administration” value ([5]; 10^−4 M (1 nmol/10 μl) peptide intrathecal) was “suppressed scratching behavior resulting from SP administration” and the “suppression of scratching behavior resulting from SP administration” value ([5]; 10^−5 M (100 pmol/10 μl) peptide intrathecal) was “suppressed scratching behavior resulting from SP administration”.

For “Arg-Ser-Arg-Thr-Arg-Gln-Phe-Tyr-Gly-Leu-Met-NH2 (RSRTRQFYGLM-NH2; listed as Homo sapiens) [HK-1]”, the “induction of thermal hyperalgesia” value (thermal hyperalgesia) is listed as “no such reaction at all”, the “induction of scratching behavior by intrathecal administration” value [1] is listed as “induces scratching behavior” and the “affinity for NK1R” value (NK1R) is listed as “high affinity”.

In the case of “Arg-Ser-Arg-Thr-Arg-NH2 (RSRTR-NH2) [nHK-1]”, the “suppression of the number of SP-induced scratching events” value [2, 7] is reported as “significantly suppress the number of scratching events; also recorded: an effect of significantly suppressing scratching behavior; also recorded: significant effects of suppressing SP-induced scratching behavior”, the “suppression of the number of SP-induced scratching events” value [2, 8] is reported as “suppression effect was exhibited to a significant degree” and the “suppression of the number of SP-induced scratching events” value [2, 9] is reported as “suppression effect disappeared”. For the same substance, the “pain behavior (flinching events) during phase I” value [3] was “pain behavior decreased significantly”, the “pain behavior (flinching events) during phase II” value [3] was “pain behavior decreased significantly” and the “scratching behavior on administration” value [4] was “no scratching behavior”. For the same substance, the “suppression of histamine-induced itching (assumed)” value [6, 10] was “suppresses” and the “suppression of 5-HT-induced itching (assumed)” value (5-HT-induced itching; [10]) was “suppresses”.

With “Gln-Phe-Phe-Gly-Leu-Met-NH2 (QFFGLM-NH2) [cSP]” the “scratching behavior on administration” value [4] was “resulted in scratching behavior”.

In the case of “Gln-Phe-Tyr-Gly-Leu-Met-NH2 (QFYGLM-NH2) [cHK-1]”, the “scratching behavior on administration” value [4] is reported as “resulted in scratching behavior”.

For “Phe-Phe-Gly-Leu-Met-NH2 (FFGLM-NH2) [SP(7-11)]”, the “induction of pain-related behavior (e.g., scratching behavior)” value (pain-related behavior) is given as “pain-related behavior is induced”.

With R[dW]KPQ-NH2 [DTrp^2-nSP] the “suppression of the number of SP-induced scratching events” value [2, 7] was “significantly suppress the number of scratching events”, the “suppression of the number of SP-induced scratching events” value [2, 11] was “suppression effect was significantly exhibited; also recorded: maintained significant suppression effects” and the “suppression of the number of SP-induced scratching events” value [2, 12] was “suppression effect disappeared”. The “itching behavior resulting from histamine administration (scratching events, 20 minutes)” value [6] was “no difference was found in itching behavior” and the “itching behavior resulting from 5-HT administration (scratching events, 20 minutes)” value (5-HT-induced itching) was “no difference was found in the degree of itching behavior”.

With R[dW]RTR-NH2 [DTrp^2-nHK-1] the “suppression of the number of SP-induced scratching events” value [2, 7] was “significantly suppress the number of scratching events”, the “suppression of the number of SP-induced scratching events” value [2, 11] was “suppression effect was significantly exhibited; also recorded: maintained significant suppression effects” and the “suppression of the number of SP-induced scratching events” value [2, 12] was “suppression effect disappeared”. The “itching behavior resulting from histamine administration (scratching events, 20 minutes)” value [6] was “significantly lowered itching events” and the “itching behavior resulting from 5-HT administration (scratching events, 20 minutes)” value (5-HT-induced itching) was “significantly lowered the degree of itching behavior”.
